The source of these data is patent US12662489B2 (Sitryx Therapeutics Limited, priority 2023, dated 2026).

The test system of one test is human CD4+ T cells. Kind of test: Human CD4+ T-cell proliferation assay (CFSE, CD3/28 beads). The settings on record: read-out: Proliferation IC50.
Test [1] addresses T1, MTHFD2 recombinant human enzyme (Homo sapiens, UniProt P13995).
T1 sequence (P13995 36-350): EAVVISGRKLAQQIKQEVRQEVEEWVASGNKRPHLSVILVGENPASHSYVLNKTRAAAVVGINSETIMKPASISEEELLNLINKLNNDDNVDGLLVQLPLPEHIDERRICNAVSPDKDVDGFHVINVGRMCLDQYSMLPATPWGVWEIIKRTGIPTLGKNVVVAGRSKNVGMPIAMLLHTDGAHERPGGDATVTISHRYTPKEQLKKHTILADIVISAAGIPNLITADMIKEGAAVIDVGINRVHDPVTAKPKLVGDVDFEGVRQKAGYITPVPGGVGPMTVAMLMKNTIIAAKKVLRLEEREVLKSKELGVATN
The experiment in a line: MTHFD2 inhibition assay (NAD(P)H-Glo luminescence). The note with it: for MTHFD1/MTHFD2 IC50 ratio: selectivity of MTHFD2 inhibition over MTHFD1, band.

The target in test [2] is T2, MTHFD1 recombinant human enzyme (Homo sapiens, UniProt P11586).
T2 sequence (P11586 2-291 limits assumed): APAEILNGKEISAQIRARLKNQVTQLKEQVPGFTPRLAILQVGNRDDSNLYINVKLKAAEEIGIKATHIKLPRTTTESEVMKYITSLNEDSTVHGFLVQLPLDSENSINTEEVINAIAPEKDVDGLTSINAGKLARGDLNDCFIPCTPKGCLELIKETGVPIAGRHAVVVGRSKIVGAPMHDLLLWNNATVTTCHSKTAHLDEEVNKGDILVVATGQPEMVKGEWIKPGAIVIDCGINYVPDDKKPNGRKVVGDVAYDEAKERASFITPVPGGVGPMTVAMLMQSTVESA
The experiment in a line: MTHFD1 inhibition assay (NAD(P)H-Glo luminescence). The note with it: MTHFD1 IC50, recombinant human enzyme 200 nM, NADP, band.

Each structure is given as a SMILES string.

For the compound `COC[C@H]1CN(c2cc(C)c3c4c(c(=O)oc3c2C)CN(C(=O)c2cc(OC3CCCC3)c(C(=O)NS(=O)(=O)C3(C)CC3)c(C(F)(F)F)c2)CC4)CCN1C` [Example 128, (R)-2-(cyclopentyloxy)-4-(8-(3-(methoxymethyl)-4-methylpiperazin-1-yl)-7,10-dimethyl-5-oxo-1,3,4,5-tetrahydro-2H-chromeno[3,4-c]pyridine-3-carbonyl)-N-((1-methylcyclopropyl)sulfonyl)-6-(trifluoromethyl)benzamide], the IC50 in the test on human CD4+ T cells was 1000 to 5000 nM; in test [1], 10 to 100 nM; in test [2] it was 1000 to 5000 nM. In test [1], the “MTHFD1/MTHFD2 IC50 ratio” value is “H (>9.0 to 30)”.
On to `COC[C@H]1CN(c2cc(Cl)c3c4c(c(=O)oc3c2C)CN(C(=O)c2cc(OC)c(C(=O)NS(=O)(=O)N3CC5CC5C3)cc2F)CC4)CCN1C` (stereo partly drawn) [Example 325, N-((3-azabicyclo[3.1.0]hexan-3-yl)sulfonyl)-4-(10-chloro-8-((R)-3-(methoxymethyl)-4-methylpiperazin-1-yl)-7-methyl-5-oxo-1,3,4,5-tetrahydro-2H-chromeno[3,4-c]pyridine-3-carbonyl)-5-fluoro-2-methoxybenzamide], for which the IC50 with human CD4+ T cells lay within 100 to 1000 nM; in test [1], 1 to 10 nM; in test [2], 100 to 1000 nM. The “MTHFD1/MTHFD2 IC50 ratio” value in test [1] is “J (>30)”.
As to `COC[C@H]1CN(c2cc(C)c3c4c(c(=O)oc3c2C)CN(C(=O)c2cc(OC)c(C(=O)NS(=O)(=O)N3CCCC3)cc2F)CC4)CCN1C` [Example 224, (R)-5-fluoro-2-methoxy-4-(8-(3-(methoxymethyl)-4-methylpiperazin-1-yl)-7,10-dimethyl-5-oxo-1,3,4,5-tetrahydro-2H-chromeno[3,4-c]pyridine-3-carbonyl)-N-(pyrrolidin-1-ylsulfonyl)benzamide], the IC50 is 30 to 100 nM with human CD4+ T cells, 1 to 10 nM in test [1] and 100 to 1000 nM in test [2]. The “MTHFD1/MTHFD2 IC50 ratio” value in test [1] is given as “J (>30)”.
Regarding `[2H]C([2H])([2H])Oc1cc(C(=O)N2CCc3c(c(=O)oc4c(C)c(N5CCN(C)[C@@H](COC)C5)cc(Cl)c34)C2)c(F)cc1C(=O)NS(=O)(=O)N1C2CCC1CC2` [Example 326, (R)-N-((7-azabicyclo[2.2.1]heptan-7-yl)sulfonyl)-4-(10-chloro-8-(3-(methoxymethyl)-4-methylpiperazin-1-yl)-7-methyl-5-oxo-1,3,4,5-tetrahydro-2H-chromeno[3,4-c]pyridine-3-carbonyl)-5-fluoro-2-(methoxy-d3)benzamide], the figures for the IC50 (in the test with human CD4+ T cells; in test [1]; in test [2]) were 100 to 1000 nM, 1 to 10 nM and 1000 to 5000 nM, respectively. Moreover, the “MTHFD1/MTHFD2 IC50 ratio” value in test [1] is “J (>30)”.
On the same counts, the results for `COC[C@H]1CN(c2cc(C)c3c4c(c(=O)oc3c2C)CN(C(=O)c2cc(N(C)C)c(C(=O)NS(=O)(=O)N3CC5(CCC5)C3)cc2F)CC4)CCN1C` [Example 253, (R)-N-((2-azaspiro[3.3]heptan-2-yl)sulfonyl)-2-(dimethylamino)-5-fluoro-4-(8-(3-(methoxymethyl)-4-methylpiperazin-1-yl)-7,10-dimethyl-5-oxo-1,3,4,5-tetrahydro-2H-chromeno[3,4-c]pyridine-3-carbonyl)benzamide] are 10 to 30 nM, 1 to 10 nM, 100 to 1000 nM and “J (>30)”.
On the same counts, the results for `COC[C@H]1CN(c2cc(Cl)c3c4c(c(=O)oc3c2C)CN(C(=O)c2cc(N(C)C)c(C(=O)NS(=O)(=O)N3CC5(CCC5)C3)cc2F)CC4)CCN1C` [Example 318, (R)-N-((2-azaspiro[3.3]heptan-2-yl)sulfonyl)-4-(10-chloro-8-(3-(methoxymethyl)-4-methylpiperazin-1-yl)-7-methyl-5-oxo-1,3,4,5-tetrahydro-2H-chromeno[3,4-c]pyridine-3-carbonyl)-2-(dimethylamino)-5-fluorobenzamide] are 10 to 30 nM, 1 to 10 nM, 100 to 1000 nM and “J (>30)”.
On to `COC[C@H]1CN(c2cc(Cl)c3c4c(c(=O)oc3c2C)CN(C(=O)c2cc(N(C)C)c(C(=O)NS(=O)(=O)N3CC[C@H](F)C3)cc2F)CC4)CCN1C` [Example 302, 4-(10-chloro-8-((R)-3-(methoxymethyl)-4-methylpiperazin-1-yl)-7-methyl-5-oxo-1,3,4,5-tetrahydro-2H-chromeno[3,4-c]pyridine-3-carbonyl)-2-(dimethylamino)-5-fluoro-N-(((S)-3-fluoropyrrolidin-1-yl)sulfonyl)benzamide], for which the IC50 in the test on human CD4+ T cells fell in the range of 10 to 30 nM; in test [1] it was 10 to 100 nM; in test [2], 100 to 1000 nM. Moreover, the “MTHFD1/MTHFD2 IC50 ratio” value in test [1] is given as “J (>30)”.
In the case of `COC[C@H]1CN(c2cc(Cl)c3c4c(c(=O)oc3c2C)CN(C(=O)c2cc(N(C)C)c(C(=O)NS(=O)(=O)N3CC[C@@H](F)C3)cc2F)CC4)CCN1C` [Example 303, 4-(10-chloro-8-((R)-3-(methoxymethyl)-4-methylpiperazin-1-yl)-7-methyl-5-oxo-1,3,4,5-tetrahydro-2H-chromeno[3,4-c]pyridine-3-carbonyl)-2-(dimethylamino)-5-fluoro-N-(((R)-3-fluoropyrrolidin-1-yl)sulfonyl)benzamide], the values for the IC50 (in the test on human CD4+ T cells; in test [1]; in test [2]) were 10 to 30 nM, 1 to 10 nM and 100 to 1000 nM, respectively. Moreover, the “MTHFD1/MTHFD2 IC50 ratio” value in test [1] is “J (>30)”.
As for `COC[C@H]1CN(c2cc(C)c3c4c(c(=O)oc3c2C)CN(C(=O)c2ccc(C(=O)NS(=O)(=O)N(C)C3CCCC3)cc2F)CC4)CCN1C` [Example 199, (R)-N-(N-cyclopentyl-N-methylsulfamoyl)-3-fluoro-4-(8-(3-(methoxymethyl)-4-methylpiperazin-1-yl)-7,10-dimethyl-5-oxo-1,3,4,5-tetrahydro-2H-chromeno[3,4-c]pyridine-3-carbonyl)benzamide], the IC50 in the test on human CD4+ T cells is 100 to 1000 nM; in test [1], 100 to 1000 nM; in test [2], 1000 to 5000 nM. Further, the “MTHFD1/MTHFD2 IC50 ratio” value in test [1] was “H (>9.0 to 30)”.
Consider `COC[C@H]1CN(c2cc(F)c3c4c(c(=O)oc3c2C)CN(C(=O)c2cc(N(C)C)c(C(=O)NS(=O)(=O)N3CCCC3)cc2F)CC4)CCN1C` [Example 308, (R)-2-(dimethylamino)-5-fluoro-4-(10-fluoro-8-(3-(methoxymethyl)-4-methylpiperazin-1-yl)-7-methyl-5-oxo-1,3,4,5-tetrahydro-2H-chromeno[3,4-c]pyridine-3-carbonyl)-N-(pyrrolidin-1-ylsulfonyl)benzamide], for which the IC50 is 1 to 10 nM in the test on human CD4+ T cells, 1 to 10 nM in test [1] and 100 to 1000 nM in test [2]. The “MTHFD1/MTHFD2 IC50 ratio” value in test [1] is reported as “J (>30)”.
As to `COC[C@H]1CN(c2cc(Cl)c3c4c(c(=O)oc3c2C)CN(C(=O)c2cc(N(C)C)c(C(=O)NS(=O)(=O)N3C[C@H]5C[C@@H]3CO5)cc2F)CC4)CCN1C` [Example 294, N-(((1R,4R)-2-oxa-5-azabicyclo[2.2.1]heptan-5-yl)sulfonyl)-4-(10-chloro-8-((R)-3-(methoxymethyl)-4-methylpiperazin-1-yl)-7-methyl-5-oxo-1,3,4,5-tetrahydro-2H-chromeno[3,4-c]pyridine-3-carbonyl)-2-(dimethylamino)-5-fluorobenzamide], the IC50 lay in the range of 10 to 30 nM with human CD4+ T cells, 10 to 100 nM in test [1] and 100 to 1000 nM in test [2]. In addition, the “MTHFD1/MTHFD2 IC50 ratio” value in test [1] is “J (>30)”.
Regarding `COC[C@H]1CN(c2cc(Cl)c3c4c(c(=O)oc3c2C)CN(C(=O)c2ccc(C(=O)NS(=O)(=O)N3C5CCC3CC5)c(OC)c2)CC4)CCN1C` [Example 321, (R)-N-((7-azabicyclo[2.2.1]heptan-7-yl)sulfonyl)-4-(10-chloro-8-(3-(methoxymethyl)-4-methylpiperazin-1-yl)-7-methyl-5-oxo-1,3,4,5-tetrahydro-2H-chromeno[3,4-c]pyridine-3-carbonyl)-2-methoxybenzamide], the figures for the IC50 (in the test on human CD4+ T cells; in test [1]; in test [2]) were 30 to 100 nM, 10 to 100 nM and 1000 to 5000 nM, respectively. Further, the “MTHFD1/MTHFD2 IC50 ratio” value in test [1] is “J (>30)”.
For `COC[C@H]1CN(c2ccc3c4c(c(=O)oc3c2C)CN(C(=O)c2cc(F)c(C(=O)NS(=O)(=O)C3(C)CC3)c(N3C5CCC3CC5)c2)CC4)CCN1C` [Example 22, (R)-2-(7-azabicyclo[2.2.1]heptan-7-yl)-6-fluoro-4-(8-(3-(methoxymethyl)-4-methylpiperazin-1-yl)-7-methyl-5-oxo-1,3,4,5-tetrahydro-2H-chromeno[3,4-c]pyridine-3-carbonyl)-N-((1-methylcyclopropyl)sulfonyl)benzamide], in that order: 10 to 30 nM, 1 to 10 nM, 1 to 10 nM and “F (<3)”.
